pIC50: −log10 of the molar value. Numbered stars: 1 amine (or outer) side, 2 acyl side, 3 side chain; on linkers, the order of the positions; unused ones are H or OH. Bridge positions count the residues as written; N and C are the ends. Square brackets hold non-standard residues; d marks the D form. Peptide text beside a SMILES is read from it. * marks the point of attachment. 2Nal = N[C@@H](Cc1ccc2ccccc2c1)C(=O)O; oXylylene = c1ccc(C[*:2])c(C[*:1])c1; Lys(iPr) = CC(C)NCCCC[C@H](N)C(=O)O; Bz = O=C(c1ccccc1)*
Biological target: T1, Human chemokine receptor CXCR4 (Homo sapiens, UniProt P61073)
T1 construct: expressed in transfected cells; host or cells: Chem-1 cells (membranes)
Assay: Human CXCR4/125I-SDF-1α binding inhibition assay
Experimental: Non-specific binding was estimated in the presence of 30 nM SDF-1α.

T1 sequence (P61073 whole entry): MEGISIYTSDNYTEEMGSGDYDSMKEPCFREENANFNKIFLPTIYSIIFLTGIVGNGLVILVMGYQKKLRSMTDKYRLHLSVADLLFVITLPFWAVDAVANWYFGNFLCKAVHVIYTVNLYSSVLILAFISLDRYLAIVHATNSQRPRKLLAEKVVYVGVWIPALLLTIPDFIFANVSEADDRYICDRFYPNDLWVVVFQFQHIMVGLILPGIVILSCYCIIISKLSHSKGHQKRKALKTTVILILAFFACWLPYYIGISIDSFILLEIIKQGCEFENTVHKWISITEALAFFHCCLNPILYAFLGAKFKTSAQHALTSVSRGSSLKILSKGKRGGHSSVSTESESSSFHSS

## CC(C)NCCCC[C@H](NC(=O)[C@@H]1CSCc2ccccc2CSC[C@H](NC(=O)c2ccccc2)C(=O)N[C@@H](Cc2ccc(O)cc2)C(=O)N[C@@H](CCCCNC(C)C)C(=O)N[C@H](CCCNC(=N)N)C(=O)N[C@@H](Cc2ccc3ccccc3c2)C(=O)NCC(=O)N1)C(=O)NCC(N)=O [Example 20] (Bz-CY[Lys(iPr)][dR][2Nal]GC[Lys(iPr)]G-NH2; linker 1-7 via oXylylene)
  pIC50: 8.89
  Kb: 390 pM

Reference: US11771736B2, “Composition comprising a therapeutic agent and a CXCR4 selective antagonist and methods for using the same” (Mainline Biosciences (Shanghai) Co., Ltd., priority 2017, dated 2023)
